These results are taken from US10544085B2, “Oils having antibacterial activity” (The United States of America, as Represented by the …, priority 2014, dated 2020).

Assay [1] has as its system three strains of Staphylococcus aureus. The settings on record: cited from earlier work.
Assay [2] concerns Enterococcus faecium. The settings on record: cited from earlier work.
Assay [3] has as its system E. faecalis. The settings on record: cited from earlier work.
Assay [4] concerns Streptococcus epidermis. The settings on record: cited from earlier work.
Assay [5] has as its system Streptococcus agalactiae. The assay can be described thus: MIC, broth microdilution. To be noted: HPLC fractions, serial two-fold dilutions approximately 128 μg/ml to approximately 2 μg/ml. Format: cell-based. From the text: The eight bacterial strains listed in Table 1 are used in the antibacterial activity assays. Streptococcus agalactiae and S. uberis (gifts from D. Donovan, ARS, USDA, Beltsville, Md.), Lactobacillus fermentum laboratory strain number 0315-1 (Bischoff, et al., Biotechnology and Bioengineering 103:117-122 (2009)), Enterococcus faecalis (ATCC Accession Number 29212), Bacillus subtilis MW10 (Bacillus Genetic Stock Center Accession Number 1A751), Staphylococcus aureus (ATCC Accession Number 29213), Escherichia coli (ATCC Accession Number 25922), and Pseudomonas aeruginosa (ATCC Accession Number 27853) are obtained from the indicated source. S. uberis, S. agalactiae, S. aureus, E. coli, and P. aeruginosa are cultured in tryptic soy broth (TSB) at 37° C. TSB contains the following: peptone from casein 17.0 g/L; peptone from soymeal 3.0 g/L; D(+)glucose 2.5 g/L; sodium chloride 5.0 g/L; and di-potassium hydrogen phosphate 2.5 g/L. E. faecalis are cultured in Bacto Brain Heart Infusion broth (BHI) (Becton Dickenson, Franklin Lakes, N.J.) at 37° C. L. fermentum are cultured in MRS broth at 37° C. MRS broth contains the following: peptone from casein 10.0 g/L; meat extract 8.0 g/L; yeast extract 4.0 g/L; D(+)-glucose 20.0 g/L; di-potassium hydrogen phosphate 2.0 g/L; Tween® 80 1.0 g/L; di-ammonium hydrogen citrate 2.0 g/L; sodium acetate 5.0 g/L; magnesium sulfate 0.2 g/L; and manganese sulfate 0.04 g/L. […]
Fractions 5-14 that were obtained from the HPLC fractionation (above) are assayed for antibacterial activity against S. agalactiae by the broth dilution method with serial two-fold dilutions of each component ranging from approximately 128 μg/ml to approximately 2 μg/ml. Fraction 12, containing mannitol-liamocin B1 had the lowest minimum inhibitory concentration (i.e. highest antibacterial activity) of the fractions.
Background: In broth dilution the organism is exposed to a series of concentrations in liquid medium.

For assay [6], the system named is S. agalactiae. The assay can be described thus: Disc diffusion assay of HPLC fractions. Format: cell-based, Streptococcus agalactiae. To be noted: 5 mg/ml, 10 μl per 6 mm disc, 37° C. overnight. How it is done:
Antibacterial activity for each fraction of the HPLC is measured qualitatively by disc diffusion assay. S. agalactiae at a density of 0.5 McFarland units are diluted 1:100 in PBS, and 20 μl are evenly spread on TSB agar media. Paper discs (6 mm diameter) are placed on surface. HPLC fractionated oils are dissolved to a concentration of 5 mg/ml in solvent (1:1 dimethylsulfoxide:2-butanone), and samples (10 μl) are applied to each disc. Plates are incubated at 37° C. overnight, and scored for a growth inhibition zone surrounding the disc, which indicates antibacterial activity. 5 mg/ml of purified oil is used as positive control, and acetonitrile solvent for HPLC is used as negative control.
A general note: A growth-free zone around the sample is the usual read-out of agar diffusion tests.

In brackets after ≈: the same amount, converted by molar mass.

For `CCCCC[C@@H](O)C[C@@H](O)CC(=O)O[C@H](CCCCC)C[C@@H](O)CC(=O)O[C@H](CCCCC)C[C@@H](O)CC(=O)O` [Exophilin A], the MIC is 50 µg/mL (≈ 86.7 µM) in assay [1], 12.5 µg/mL (≈ 21.7 µM) in assay [2], 25 µg/mL (≈ 43.3 µM) in assay [3] and above 100 µg/mL in assay [4].
On to mannitol-liamocin A1 [Fraction 7], for which the “Minimum Inhibitory Concentration” value in assay [5] (listed as 7) is above 128 µg/mL.
Turning to mannitol-liamocin A1 [Fraction 8], the “growth inhibition zone surrounding the disc (antibacterial activity, qualitative)” value in assay [6] was “exhibit bactericidal activity”. The “Minimum Inhibitory Concentration” value in assay [5] (listed as 8) was found to be 64 µg/mL.
Consider mannitol-liamocin A2 [Fraction 9], for which the “growth inhibition zone surrounding the disc (antibacterial activity, qualitative)” value in assay [6] was “exhibit bactericidal activity”. The “Minimum Inhibitory Concentration” value in assay [5] (listed as 9) turned out to be 128 µg/mL.
For mannitol-liamocin A2 [Fraction 10], in assay [5] (listed as 10), the “Minimum Inhibitory Concentration” value was 64 µg/mL.
For mannitol-liamocin B1 [Fraction 11], the “growth inhibition zone surrounding the disc (antibacterial activity, qualitative)” value in assay [6] is listed as “exhibit bactericidal activity”. Further, the “Minimum Inhibitory Concentration” value in assay [5] (listed as 11) was 64 µg/mL.
Take mannitol-liamocin B1 [Fraction 12]: the “Minimum Inhibitory Concentration” value in assay [5] (listed as 12) stood at 16 µg/mL.
Consider mannitol-liamocin B2 [Fraction 13], for which, in assay [6], the “growth inhibition zone surrounding the disc (antibacterial activity, qualitative)” value was “exhibit bactericidal activity”. Also, the “Minimum Inhibitory Concentration” value in assay [5] worked out at 128 µg/mL.

As usually defined, the MIC is the least concentration at which growth counts as inhibited.
